Source: patent US9877921B2 (NOVA SOUTHEASTERN UNIVERSITY, priority 2011, dated 2018)

Assay: Discoloration (degradation) after nanoparticle processing by microfluidization
Format: physicochemical
Details: after high energy fluidization
Experimental: Nanoparticles were fabricated from epinephrine base or epinephrine bitartrate (Bit) using high energy fluidization (microfluidization) techniques. […] Particles sizes were measured before and after size reduction using a Mastersizer (Malvern) and/or a NiComp 370 Submicron Particle Sizer (NiComp). The particles were lyophilized (freeze-dried) using a bench top lyophilizer (ART Inc.).
The main problem was discoloration (a brown color formed) due to degradation.

Structure (SMILES): CNC[C@H](O)c1ccc(O)c(O)c1 [Epinephrine Bit, epinephrine bitartrate]
- Sample Color after Processing (discoloration indicating instability): did not show any discoloration
